Values quoted from earlier work in US20110008412A1, “Oral Formulations for 5-HT-Receptor Agonists, Uses and Methods of Treatment Employing The Same” (CIPLA LIMITED, priority 2003, published 2011).

half-life (after subcutaneous and oral application): about 2 hours
bioavailability (injected subcutaneously): 96%
Structure (SMILES): CNS(=O)(=O)Cc1ccc2[nH]cc(CCN(C)C)c2c1 [sumatriptan, 3-[2-(dimethylamino)ethyl]-N-methyl-1H-indole-5-methanesulfonamide]
